Experimental data as given in patent US20230085307A1, “PYRIDAZINONE COMPOUND AND HERBICIDE” (NISSAN CHEMICAL CORPORATION, priority 2019, published 2023).

Columns and labels:
Japanese bulrush = experiment: Test Example 2: herbicidal activity, application during weed generation under submerged conditions (Table 17, symbol B); format: in vivo, Japanese bulrush (Schoenoplectus juncoides); details: AAH 320 g/ha; application during weed generation, submerged conditions
Method in brief: (§1)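 Effect on each weed is rated three weeks post-treatment, using the same scoring criteria as the preceding test. Plants grow from mixed-sown seed in flooded alluvial soil (4 cm water) at 25° C. to 30° C., and are treated at one to two leaves with diluted emulsion dropped onto the water.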

oval-leafed pondweed = experiment: Test Example 2: herbicidal activity, application during weed generation under submerged conditions (Table 17, symbol C); format: in vivo, oval-leafed pondweed (Monochoria vaginalis); details: AAH 320 g/ha; application during weed generation, submerged conditions
Method in brief: as §1

blackgrass [1] = experiment: Test Example 4: herbicidal effect by soil treatment (Table 19, symbol J); format: in vivo, blackgrass (Alopecurus myosuroides); details: amount of applied herbicide 320 g/ha
Method in brief: (§2)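 Step 1: sow seeds in sterilized diluvial soil, cover ~1.5 cm. Step 2: spray diluted emulsion onto soil surface at predetermined rate. Step 3: greenhouse, 25–30° C, three weeks. Step 4: grade effect on each plant by earlier criteria.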

Italian ryegrass [2] = experiment: Test Example 5: herbicidal effect by foliage application, plastic box (Table 20, symbol K); format: in vivo, Italian ryegrass (Lolium multiflorum); details: foliage application, 320 g/ha, three weeks after application
Method in brief: (§3)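 Foliar spray test: emulsion formulation diluted in water to a set application rate, sprayed onto 14-day-old plants raised in diluvial soil at 25° C to 30° C under glass. Both herbicidal effect and crop effect rated visually three weeks later.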

blackgrass [3] = experiment: Test Example 5: herbicidal effect by foliage application, plastic box (Table 20, symbol J); format: in vivo, blackgrass (Alopecurus myosuroides); details: foliage application, 320 g/ha, three weeks after application
Method in brief: as §3

Italian ryegrass [4] = experiment: Test Example 4: herbicidal effect by soil treatment (Table 19, symbol K); format: in vivo, Italian ryegrass (Lolium multiflorum); details: amount of applied herbicide 320 g/ha
Method in brief: as §2

redroot pigweed = experiment: Test Example 5: herbicidal effect by foliage application, plastic box (Table 20, symbol N); format: in vivo, redroot pigweed (Amaranthus retroflexus); details: foliage application, 320 g/ha, three weeks after application
Method in brief: as §3

wild oat = experiment: Test Example 4: herbicidal effect by soil treatment (Table 19, symbol I); format: in vivo, wild oat (Avena fatua); details: amount of applied herbicide 320 g/ha
Method in brief: as §2

lambsquarters = experiment: Test Example 4: herbicidal effect by soil treatment (Table 19, symbol O); format: in vivo, lambsquarters (Chenopodium album); details: amount of applied herbicide 320 g/ha
Method in brief: as §2

persian speedwell = experiment: Test Example 4: herbicidal effect by soil treatment (Table 19, symbol R); format: in vivo, Persian speedwell (Veronica persica); details: amount of applied herbicide 320 g/ha
Method in brief: as §2

late watergrass [5] = experiment: Test Example 1: herbicidal activity, application before weed generation under submerged conditions (Table 16, symbol A); format: in vivo, late watergrass (Echinochloa oryzicola); details: amount of applied herbicide 320 g/ha
Method in brief: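 Alluvial soil was flooded to 4 cm depth, weed seeds were sown mixed and 2.5-leaf rice seedlings were transplanted. On sowing day, the compound's emulsion, diluted in water to a set dose, was applied to the water surface. Plants grew at 25–30 °C and were scored 0–5 after three weeks.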

chickweed [6] = experiment: Test Example 4: herbicidal effect by soil treatment (Table 19, symbol P); format: in vivo, common chickweed (Stellaria media); details: amount of applied herbicide 320 g/ha
Method in brief: as §2

chickweed [7] = experiment: Test Example 5: herbicidal effect by foliage application, plastic box (Table 20, symbol P); format: in vivo, common chickweed (Stellaria media); details: foliage application, 320 g/ha, three weeks after application
Method in brief: as §3

velvetleaf = experiment: Test Example 5: herbicidal effect by foliage application, plastic box (Table 20, symbol M); format: in vivo, velvetleaf (Abutilon theophrasti); details: foliage application, 320 g/ha, three weeks after application
Method in brief: as §3

late watergrass [8] = experiment: Test Example 2: herbicidal activity, application during weed generation under submerged conditions (Table 17, symbol A); format: in vivo, late watergrass (Echinochloa oryzicola); details: AAH 320 g/ha; application during weed generation, submerged conditions
Method in brief: as §1

southern crabgrass = experiment: Test Example 5: herbicidal effect by foliage application, plastic box (Table 20, symbol F); format: in vivo, southern crabgrass (Digitaria ciliaris); details: foliage application, 320 g/ha, three weeks after application
Method in brief: as §3

| SMILES | herbicidal effect rating, B: Japanese bulrush (Japanese bulrush) | herbicidal effect rating, C: oval-leafed pondweed (oval-leafed pondweed) | K: Italian ryegrass, herbicidal effect grade (Italian ryegrass [2]) | J: blackgrass, herbicidal effect grade (blackgrass [3]) | N: redroot pigweed, herbicidal effect grade (redroot pigweed) | Herbicidal effect, A: late watergrass (late watergrass [5]) | P: chickweed, herbicidal effect grade (chickweed [7]) | M: velvetleaf, herbicidal effect grade (velvetleaf) | herbicidal effect rating, A: late watergrass (late watergrass [8]) | F: southern crabgrass, herbicidal effect grade (southern crabgrass) | J: blackgrass, herbicidal effect grade (blackgrass [1]) | K: Italian ryegrass, herbicidal effect grade (Italian ryegrass [4]) | I: wild oat, herbicidal effect grade (wild oat) | O: lambsquarters, herbicidal effect grade (lambsquarters) | R: persian speedwell, herbicidal effect grade (persian speedwell) | P: chickweed, herbicidal effect grade (chickweed [6]) | also measured |
| --- | --- | --- | --- | --- | --- | --- | --- | --- | --- | --- | --- | --- | --- | --- | --- | --- | --- |
| CCCC(=O)Oc1c(CC)nn(C)c(=O)c1-c1c(-c2ccc(C(F)(F)F)cc2)sc2ccc(F)cc12 [2-411] | 0 (Herbicidal rate of 5% or less (almost no effect)) | 0 (Herbicidal rate of 5% or less (almost no effect)) | 0 (Herbicidal rate of 5% or less (almost no effect)) | 0 (Herbicidal rate of 5% or less (almost no effect)) | 5 (Herbicidal rate of 90% or more (almost completely withered)) | 3 (Herbicidal rate of 40% or more and less than 70%) | 5 (Herbicidal rate of 90% or more (almost completely withered)) | 1 (Herbicidal rate of 5% or more and less than 20%) | 3 (Herbicidal rate of 40% or more and less than 70%) | 3 (Herbicidal rate of 40% or more and less than 70%) |  |  |  |  |  |  | herbicidal effect, J: blackgrass (blackgrass [1]): 0 (Herbicidal rate of 5% or less (almost no effect)); herbicidal effect, K: Italian ryegrass (Italian ryegrass [4]): 0 (Herbicidal rate of 5% or less (almost no effect)); herbicidal effect, I: wild oat (wild oat): 0 (Herbicidal rate of 5% or less (almost no effect)); herbicidal effect, O: lambsquarters (lambsquarters): 0 (Herbicidal rate of 5% or less (almost no effect)); herbicidal effect, R: persian speedwell (persian speedwell): 2 (Herbicidal rate of 20% or more and less than 40%); herbicidal effect, P: chickweed (chickweed [6]): 1 (Herbicidal rate of 5% or more and less than 20%) |
| CCOC(=O)Oc1c(C)nn(C)c(=O)c1-c1c(-c2ccccc2OC)sc2cc(F)ccc12 [3-024] | 3 (Herbicidal rate of 40% or more and less than 70%) | 3 (Herbicidal rate of 40% or more and less than 70%) | 4 (Herbicidal rate of 70% or more and less than 90%) | 4 (Herbicidal rate of 70% or more and less than 90%) | 5 (Herbicidal rate of 90% or more (almost completely withered)) | 3 (Herbicidal rate of 40% or more and less than 70%) | 5 (Herbicidal rate of 90% or more (almost completely withered)) | 5 (Herbicidal rate of 90% or more (almost completely withered)) | 2 (Herbicidal rate of 20% or more and less than 40%) | 1 (Herbicidal rate of 5% or more and less than 20%) | 1 (Herbicidal rate of 5% or more and less than 20%) | 1 (Herbicidal rate of 5% or more and less than 20%) | 3 (Herbicidal rate of 40% or more and less than 70%) | 4 (Herbicidal rate of 70% or more and less than 90%) | 0 (Herbicidal rate of 5% or less (almost no effect)) | 3 (Herbicidal rate of 40% or more and less than 70%) |  |
| COc1ccccc1-c1sc2cc(OC(C)C)ccc2c1-c1c(O)c(C)nn(C)c1=O [3-101] | 3 (Herbicidal rate of 40% or more and less than 70%) | 2 (Herbicidal rate of 20% or more and less than 40%) | 5 (Herbicidal rate of 90% or more (almost completely withered)) | 5 (Herbicidal rate of 90% or more (almost completely withered)) | 5 (Herbicidal rate of 90% or more (almost completely withered)) | 5 (Herbicidal rate of 90% or more (almost completely withered)) | 5 (Herbicidal rate of 90% or more (almost completely withered)) | 5 (Herbicidal rate of 90% or more (almost completely withered)) | 3 (Herbicidal rate of 40% or more and less than 70%) | 5 (Herbicidal rate of 90% or more (almost completely withered)) | 4 (Herbicidal rate of 70% or more and less than 90%) | 5 (Herbicidal rate of 90% or more (almost completely withered)) | 1 (Herbicidal rate of 5% or more and less than 20%) | 5 (Herbicidal rate of 90% or more (almost completely withered)) | 4 (Herbicidal rate of 70% or more and less than 90%) | 4 (Herbicidal rate of 70% or more and less than 90%) |  |
| CCCCOc1ccc2c(-c3c(O)c(C)nn(C)c3=O)c(-c3ccccc3OC)sc2c1 [3-105] | 3 (Herbicidal rate of 40% or more and less than 70%) | 4 (Herbicidal rate of 70% or more and less than 90%) | 5 (Herbicidal rate of 90% or more (almost completely withered)) | 5 (Herbicidal rate of 90% or more (almost completely withered)) | 5 (Herbicidal rate of 90% or more (almost completely withered)) | 5 (Herbicidal rate of 90% or more (almost completely withered)) | 5 (Herbicidal rate of 90% or more (almost completely withered)) | 5 (Herbicidal rate of 90% or more (almost completely withered)) | 3 (Herbicidal rate of 40% or more and less than 70%) | 5 (Herbicidal rate of 90% or more (almost completely withered)) | 0 (Herbicidal rate of 5% or less (almost no effect)) | 5 (Herbicidal rate of 90% or more (almost completely withered)) | 0 (Herbicidal rate of 5% or less (almost no effect)) | 3 (Herbicidal rate of 40% or more and less than 70%) | 5 (Herbicidal rate of 90% or more (almost completely withered)) | 3 (Herbicidal rate of 40% or more and less than 70%) |  |
| COc1ccccc1-c1sc2cc(OCC(C)C)ccc2c1-c1c(O)c(C)nn(C)c1=O [3-107] | 5 (Herbicidal rate of 90% or more (almost completely withered)) | 5 (Herbicidal rate of 90% or more (almost completely withered)) | 5 (Herbicidal rate of 90% or more (almost completely withered)) | 4 (Herbicidal rate of 70% or more and less than 90%) | 5 (Herbicidal rate of 90% or more (almost completely withered)) | 4 (Herbicidal rate of 70% or more and less than 90%) | 5 (Herbicidal rate of 90% or more (almost completely withered)) | 5 (Herbicidal rate of 90% or more (almost completely withered)) | 3 (Herbicidal rate of 40% or more and less than 70%) | 5 (Herbicidal rate of 90% or more (almost completely withered)) | 0 (Herbicidal rate of 5% or less (almost no effect)) | 5 (Herbicidal rate of 90% or more (almost completely withered)) | 0 (Herbicidal rate of 5% or less (almost no effect)) | 5 (Herbicidal rate of 90% or more (almost completely withered)) | 4 (Herbicidal rate of 70% or more and less than 90%) | 1 (Herbicidal rate of 5% or more and less than 20%) |  |
